Experimental data taken from patent US10941158B2, “Pyrazole ACC inhibitors and uses thereof” (Gilead Apollo, LLC, priority 2015, dated 2021).
Values after ≈ are worked out from the molar mass of the structure shown. Like-named read-outs stand apart in the source and are kept apart here.

Experiments:
human (hACC2) ACC2 = human (hACC2) ACC2 (Homo sapiens, UniProt O00763); test: In vitro Acetyl-CoA Carboxylase (ACC) inhibition assay (ADP-Glo), hACC2; assay type: biochemical
Procedure: The detailed procedure is as follows. […] 10 μL ADP glo reagent was added. […] 20 μL kinase detection reagent was added.
“NA” stands for “not assayed.”

fungal (fACC2) ACC2 = fungal (fACC2) ACC2 (UniProt Q00955); conditions: read-out: fACC2 IC50; fungal ACC2, ADP-Glo
Sequence of fungal (fACC2) ACC2 (Q00955 whole entry): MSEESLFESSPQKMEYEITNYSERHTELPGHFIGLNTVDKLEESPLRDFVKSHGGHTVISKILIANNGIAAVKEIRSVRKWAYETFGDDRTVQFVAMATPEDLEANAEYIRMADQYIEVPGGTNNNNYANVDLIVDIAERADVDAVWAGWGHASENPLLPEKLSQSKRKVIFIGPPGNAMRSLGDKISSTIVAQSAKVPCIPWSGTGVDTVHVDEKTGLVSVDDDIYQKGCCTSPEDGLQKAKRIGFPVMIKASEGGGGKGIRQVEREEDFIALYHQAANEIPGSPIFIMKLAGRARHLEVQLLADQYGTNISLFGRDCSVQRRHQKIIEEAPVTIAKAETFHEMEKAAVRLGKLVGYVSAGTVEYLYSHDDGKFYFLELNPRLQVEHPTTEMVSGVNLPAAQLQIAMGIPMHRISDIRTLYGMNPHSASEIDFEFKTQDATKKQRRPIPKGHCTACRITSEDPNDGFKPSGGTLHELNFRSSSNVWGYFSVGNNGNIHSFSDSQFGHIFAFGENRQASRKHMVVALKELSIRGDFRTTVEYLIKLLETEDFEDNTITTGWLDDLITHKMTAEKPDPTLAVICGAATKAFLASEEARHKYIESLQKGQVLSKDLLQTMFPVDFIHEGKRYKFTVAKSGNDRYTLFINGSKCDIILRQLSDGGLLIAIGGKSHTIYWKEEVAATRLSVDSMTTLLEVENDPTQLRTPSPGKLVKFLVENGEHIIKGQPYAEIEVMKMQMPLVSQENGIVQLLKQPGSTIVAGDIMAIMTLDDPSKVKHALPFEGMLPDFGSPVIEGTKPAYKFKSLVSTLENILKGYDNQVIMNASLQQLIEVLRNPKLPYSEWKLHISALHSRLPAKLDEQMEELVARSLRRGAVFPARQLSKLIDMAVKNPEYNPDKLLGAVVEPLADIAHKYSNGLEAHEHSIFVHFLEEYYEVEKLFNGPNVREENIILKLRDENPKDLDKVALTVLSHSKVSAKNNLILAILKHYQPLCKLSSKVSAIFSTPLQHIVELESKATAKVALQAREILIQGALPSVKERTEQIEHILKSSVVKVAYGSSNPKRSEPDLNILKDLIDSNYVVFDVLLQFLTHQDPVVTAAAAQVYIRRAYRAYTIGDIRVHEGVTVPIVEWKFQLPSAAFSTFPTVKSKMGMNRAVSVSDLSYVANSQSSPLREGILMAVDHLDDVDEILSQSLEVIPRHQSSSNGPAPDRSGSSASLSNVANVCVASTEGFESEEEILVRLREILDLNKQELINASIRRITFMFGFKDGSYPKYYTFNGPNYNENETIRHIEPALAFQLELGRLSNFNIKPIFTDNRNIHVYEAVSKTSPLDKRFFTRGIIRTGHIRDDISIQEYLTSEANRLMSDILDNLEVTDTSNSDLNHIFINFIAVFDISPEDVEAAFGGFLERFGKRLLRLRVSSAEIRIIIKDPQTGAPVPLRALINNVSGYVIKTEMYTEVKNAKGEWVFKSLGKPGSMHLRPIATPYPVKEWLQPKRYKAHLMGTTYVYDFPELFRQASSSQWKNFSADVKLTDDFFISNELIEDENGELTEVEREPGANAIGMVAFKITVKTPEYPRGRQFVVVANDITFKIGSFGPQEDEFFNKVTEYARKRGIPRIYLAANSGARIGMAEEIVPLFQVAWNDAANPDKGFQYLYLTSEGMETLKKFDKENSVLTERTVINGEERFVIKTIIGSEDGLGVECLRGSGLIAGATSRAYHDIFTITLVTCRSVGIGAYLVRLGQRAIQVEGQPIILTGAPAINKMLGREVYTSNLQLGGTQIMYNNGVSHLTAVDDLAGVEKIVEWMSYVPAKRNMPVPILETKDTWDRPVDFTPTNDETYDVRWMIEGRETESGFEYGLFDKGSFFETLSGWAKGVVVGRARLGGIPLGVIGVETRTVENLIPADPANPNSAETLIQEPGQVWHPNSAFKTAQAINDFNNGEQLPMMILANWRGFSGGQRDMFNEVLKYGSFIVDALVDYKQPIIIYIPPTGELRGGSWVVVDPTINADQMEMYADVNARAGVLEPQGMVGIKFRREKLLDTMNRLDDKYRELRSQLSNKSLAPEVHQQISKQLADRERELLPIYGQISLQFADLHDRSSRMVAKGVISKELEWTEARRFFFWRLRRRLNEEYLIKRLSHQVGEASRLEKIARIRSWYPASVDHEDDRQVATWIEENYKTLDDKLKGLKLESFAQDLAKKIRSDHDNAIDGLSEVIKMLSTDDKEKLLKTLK

[1] = tested on: Fusarium moniliforme (Fm); test: Growth inhibition assay of fungal pathogens; assay type: cell-based; conditions: for IC90: Fusarium verticillioides, 48 h, read-out: Concentration at 90% Inhibition Fm
Outline: (§1)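 Compounds in DMSO tested at final 50, 10, 2 ppm or 2, 0.4, 0.08 ppm. Spores in 17% V8 medium, or 1.5 mm mycelial plugs in ¼ PDB for R. solani, incubated with compound. OD600 and visual ratings at 48 h versus 2% DMSO control gave percent growth inhibition.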

[2] = tested on: Phytophthora capsici (Pc); test: Growth inhibition assay of fungal pathogens; assay type: cell-based; conditions: for IC90: Phytophthora capsici, read-out: Concentration at 90% Inhibition Pc
Outline: (§2)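 Percent growth inhibition was derived from 48 h OD600 and visual scores relative to 2% DMSO, with blank background subtraction. Fungi were grown from spores in 17% V8 liquid medium, R. solani from 1.5 mm plugs in ¼ PDB, with compound at final 50/10/2 or 2/0.4/0.08 ppm.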

Botrtyis cinerea (Bc) = test: Growth inhibition assay of fungal pathogens; assay type: cell-based; conditions: 48 h, read-out: Concentration at 90% Inhibition Bc
Outline: as §1

[3] = tested on: Collectotrichum graminicola (Cg); test: Growth inhibition assay of fungal pathogens; assay type: cell-based; conditions: 48 h, read-out: Concentration at 90% Inhibition Cg
Outline: as §2

Septoria tritici (St) = test: Growth inhibition assay of fungal pathogens; assay type: cell-based; conditions: for IC90: Zymoseptoria tritici, read-out: Concentration at 90% Inhibition St
Outline: as §2

Diplodia maydis (Dm) = test: Growth inhibition assay of fungal pathogens; assay type: cell-based; conditions: Stenocarpella maydis, 48 h, read-out: Concentration at 90% Inhibition Dm
Outline: as §1

[4] = tested on: Fusarium virguliforme (Fv); test: Growth inhibition assay of fungal pathogens; assay type: cell-based; conditions: 48 h
Outline: as §2

Rhizoctonia solani (Rs) = test: Growth inhibition assay of fungal pathogens; assay type: cell-based; conditions: 48 h, read-out: Concentration at 90% Inhibition Rs
Outline: as §1

C. krusei ATCC 6258 = test: Anti-Fungal (Candida) Activity Assay, broth microtiter MIC; assay type: cell-based; conditions: Pichia kudriavzevii, read-out: MIC C. krusei ATCC 6258
Outline: (§3)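 Test compounds were dissolved in DMSO at 1 mg/mL (stock) and challenged against direct colony suspensions in RPMI 1640 with MOPS under CLSI M27-A3 broth microdilution. Growth was judged by eye relative to drug-free control after 48 h.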

[5] = tested on: C. parapsilosis ATCC 22019; test: as above; assay type: cell-based; conditions: Lodderomyces parapsilosis, read-out: MIC C. parapsilosis ATCC 22019
Outline: as §3

C. albicans ATCC 90028 = test: as above; assay type: cell-based; conditions: read-out: MIC C. albicans ATCC 90028
Outline: as §3

[6] = Table 4a, 48 hours, read-out: Concentration at 90% Inhibition Fv
[7] = Table 4b, 48 hours, read-out: Concentration at 90% Inhibition Fv
[8] = ATCC6258, 3 replicates, MIC recorded at 48 h
[9] = ATCC22019, 3 replicates, MIC recorded at 48 h
[10] = ATCC90028, 3 replicates, MIC recorded at 48 h

Sequence of human (hACC2) ACC2 (O00763 whole entry): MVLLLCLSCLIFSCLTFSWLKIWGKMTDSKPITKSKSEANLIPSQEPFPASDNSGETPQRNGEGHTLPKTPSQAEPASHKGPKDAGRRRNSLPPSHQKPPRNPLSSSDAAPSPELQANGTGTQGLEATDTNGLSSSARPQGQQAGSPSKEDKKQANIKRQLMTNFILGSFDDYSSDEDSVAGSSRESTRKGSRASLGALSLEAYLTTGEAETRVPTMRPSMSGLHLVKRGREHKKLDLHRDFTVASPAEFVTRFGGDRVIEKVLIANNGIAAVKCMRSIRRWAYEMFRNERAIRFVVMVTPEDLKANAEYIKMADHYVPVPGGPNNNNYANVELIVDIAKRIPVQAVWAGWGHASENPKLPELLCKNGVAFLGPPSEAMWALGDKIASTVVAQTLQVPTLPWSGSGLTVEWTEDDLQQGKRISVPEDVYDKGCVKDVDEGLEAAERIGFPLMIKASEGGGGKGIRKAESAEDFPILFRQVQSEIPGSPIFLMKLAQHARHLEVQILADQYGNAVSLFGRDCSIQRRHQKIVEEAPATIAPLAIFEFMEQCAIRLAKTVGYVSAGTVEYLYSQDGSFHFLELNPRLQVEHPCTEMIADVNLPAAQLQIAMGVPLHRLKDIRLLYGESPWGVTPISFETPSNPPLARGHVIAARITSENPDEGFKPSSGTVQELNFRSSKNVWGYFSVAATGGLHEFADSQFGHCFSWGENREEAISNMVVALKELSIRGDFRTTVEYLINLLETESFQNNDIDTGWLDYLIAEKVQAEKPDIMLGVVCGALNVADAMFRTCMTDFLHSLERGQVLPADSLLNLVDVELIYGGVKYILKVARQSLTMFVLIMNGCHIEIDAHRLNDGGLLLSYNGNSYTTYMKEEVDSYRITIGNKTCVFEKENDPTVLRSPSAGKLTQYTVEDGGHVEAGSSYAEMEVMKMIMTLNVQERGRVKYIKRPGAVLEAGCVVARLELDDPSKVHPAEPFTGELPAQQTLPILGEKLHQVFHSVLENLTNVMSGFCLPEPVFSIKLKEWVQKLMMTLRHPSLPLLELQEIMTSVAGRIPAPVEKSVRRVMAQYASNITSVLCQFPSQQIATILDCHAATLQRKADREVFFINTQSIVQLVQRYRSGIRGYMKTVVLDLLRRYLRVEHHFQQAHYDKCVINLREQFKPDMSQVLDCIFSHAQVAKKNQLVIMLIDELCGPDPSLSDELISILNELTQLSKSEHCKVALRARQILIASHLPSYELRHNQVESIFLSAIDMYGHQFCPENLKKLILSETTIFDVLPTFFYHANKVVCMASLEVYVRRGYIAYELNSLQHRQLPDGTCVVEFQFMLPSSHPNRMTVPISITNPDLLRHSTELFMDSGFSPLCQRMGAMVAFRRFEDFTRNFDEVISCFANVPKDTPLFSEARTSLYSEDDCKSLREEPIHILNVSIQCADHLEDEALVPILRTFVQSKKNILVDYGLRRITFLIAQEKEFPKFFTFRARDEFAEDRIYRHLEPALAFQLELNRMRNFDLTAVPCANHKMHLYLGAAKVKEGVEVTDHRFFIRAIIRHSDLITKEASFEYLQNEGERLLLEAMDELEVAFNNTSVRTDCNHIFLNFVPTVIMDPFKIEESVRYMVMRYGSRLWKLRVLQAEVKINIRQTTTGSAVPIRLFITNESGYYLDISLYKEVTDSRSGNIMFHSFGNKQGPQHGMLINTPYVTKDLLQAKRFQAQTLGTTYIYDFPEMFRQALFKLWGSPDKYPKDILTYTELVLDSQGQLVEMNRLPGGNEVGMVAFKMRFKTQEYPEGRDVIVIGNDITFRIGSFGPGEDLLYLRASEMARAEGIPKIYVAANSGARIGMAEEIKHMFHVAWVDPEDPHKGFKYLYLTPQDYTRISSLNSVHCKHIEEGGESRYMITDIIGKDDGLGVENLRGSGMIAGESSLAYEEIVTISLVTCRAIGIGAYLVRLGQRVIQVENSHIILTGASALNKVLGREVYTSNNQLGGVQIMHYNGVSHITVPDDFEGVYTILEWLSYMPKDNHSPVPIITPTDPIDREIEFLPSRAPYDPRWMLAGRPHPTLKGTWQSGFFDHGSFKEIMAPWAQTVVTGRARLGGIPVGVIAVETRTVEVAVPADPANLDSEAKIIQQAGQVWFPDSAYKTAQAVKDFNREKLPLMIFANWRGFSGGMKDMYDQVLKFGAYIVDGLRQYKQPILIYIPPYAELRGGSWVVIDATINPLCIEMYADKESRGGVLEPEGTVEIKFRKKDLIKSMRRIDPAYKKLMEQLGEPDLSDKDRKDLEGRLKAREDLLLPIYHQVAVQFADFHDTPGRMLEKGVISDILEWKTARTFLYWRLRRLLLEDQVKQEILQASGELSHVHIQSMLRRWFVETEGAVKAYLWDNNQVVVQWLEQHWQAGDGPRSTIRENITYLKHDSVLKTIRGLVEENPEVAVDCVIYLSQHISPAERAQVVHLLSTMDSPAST

Compound | IC50 (human (hACC2) ACC2) | IC50 (fungal (fACC2) ACC2) | IC90 ([1]; Table 4a, 48 hours) | IC90 ([2]; Table 4a, 48 hours) | Concentration at 90% Inhibition Pc ([2]; Table 4b, 48 hours) | IC90 (Botrtyis cinerea (Bc); Table 4a) | IC90 (Botrtyis cinerea (Bc); Table 4b) | IC90 ([3]; Table 4a) | IC90 ([3]; Table 4b) | Concentration at 90% Inhibition St (Septoria tritici (St); Table 4b, 48 hours) | IC90 (Septoria tritici (St); Table 4a, 48 hours) | IC90 (Diplodia maydis (Dm); Table 4a) | IC90 (Diplodia maydis (Dm); Table 4b) | IC90 [4, 6] | IC90 [4, 7] | IC90 (Rhizoctonia solani (Rs); Table 4a) | IC90 (Rhizoctonia solani (Rs); Table 4b) | MIC (C. krusei ATCC 6258; [8]) | MIC [5, 9] | MIC (C. albicans ATCC 90028; [10]) | other results
COc1ccc(F)cc1[C@H](Cn1c(=O)n(C(C)(C)C(=O)N2CCCC2)c(=O)c2c(C)c(-n3cccn3)sc21)OC(C)C [Compound I-24, (R)-1-(2-(5-fluoro-2-methoxyphenyl)-2-isopropoxyethyl)-5-methyl-3-(2-methyl-1-oxo-1-(pyrrolidin-1-yl)propan-2-yl)-6-(1H-pyrazol-1-yl)thieno[2,3-d]pyrimidine-2,4(1H,3H)-dione] | 3 to 10 nM | 0.6 to 3 nM | 0.08 µg/mL (≈ 0.134 µM) | > 50 µg/mL | D (“D” provided a compound concentration of >50 ppm at 90% inhibition of fungal pathogens) | 0.4 µg/mL (≈ 0.669 µM) | 0.4 µg/mL (≈ 0.669 µM) | 0.4 µg/mL (≈ 0.669 µM) | 0.4 µg/mL (≈ 0.669 µM) | D (“D” provided a compound concentration of >50 ppm at 90% inhibition of fungal pathogens) | > 50 µg/mL | 2 µg/mL (≈ 3.35 µM) | 2 µg/mL (≈ 3.35 µM) | 0.4 µg/mL (≈ 0.669 µM) | 0.4 µg/mL (≈ 0.669 µM) | 0.4 µg/mL (≈ 0.669 µM) | 0.4 µg/mL (≈ 0.669 µM) | 2.1 to 4 µg/mL (≈ 3.51 to 6.69 µM) | > 4.1 µg/mL | > 4.1 µg/mL | Concentration at 90% Inhibition Fm ([1]; Table 4b, 48 hours): A A
COc1ccc(F)cc1[C@H](Cn1c(=O)n(C(C)(C)C(=O)NC(C)C)c(=O)c2c(C)c(-n3cccn3)sc21)OC1CCC(=O)CC1 [Compound I-26, (R)-2-(1-(2-(5-fluoro-2-methoxyphenyl)-2-((4-oxocyclo-hexyl)oxy)ethyl)-5-methyl-2,4-dioxo-6-(1H-pyrazol-1-yl)-1,4-dihydro-thieno[2,3-d]pyrimidin-3(2H)-yl)-N-isopropyl-2-methylpropanamide] | 3 to 10 nM | 0.6 to 3 nM | – | – | – | 0.4 µg/mL (≈ 0.625 µM) | 0.4 µg/mL (≈ 0.625 µM) | > 50 µg/mL | 10 µg/mL (≈ 15.6 µM) | – | – | 2 µg/mL (≈ 3.13 µM) | 2 µg/mL (≈ 3.13 µM) | – | – | 2 µg/mL (≈ 3.13 µM) | 2 µg/mL (≈ 3.13 µM) | – | – | – | IC90 [1]: 0.08 µg/mL (≈ 0.125 µM); Concentration at 90% Inhibition Fm ([1]; Table 4a, 48 hours): A A; IC90 ([2]; 48 h, Table 4a): > 50 µg/mL; IC90 ([2]; 48 h, Table 4b): > 50 µg/mL; IC90 (Septoria tritici (St); 48 h, Table 4a): > 50 µg/mL; IC90 (Septoria tritici (St); 48 h, Table 4b): > 50 µg/mL; IC90 ([4]; read-out: Concentration at 90% Inhibition Fv, Table 4a, 48 hours): 2 µg/mL (≈ 3.13 µM); IC90 ([4]; read-out: Concentration at 90% Inhibition Fv, Table 4b, 48 hours): 2 µg/mL (≈ 3.13 µM); MIC (C. krusei ATCC 6258; ATCC6258, 48 h): 0.25 to 1 µg/mL (≈ 0.391 to 1.56 µM); MIC ([5]; ATCC22019, 48 h): 1.1 to 2 µg/mL (≈ 1.72 to 3.13 µM); MIC (C. albicans ATCC 90028; ATCC90028, 48 h): 1.1 to 2 µg/mL (≈ 1.72 to 3.13 µM)
COc1ccc(F)cc1[C@H](Cn1c(=O)n(CC(=O)N2CCCC2)c(=O)c2c(C)c(-n3cccn3)sc21)OC(C)C [Compound I-28, (R)-1-(2-(5-fluoro-2-methoxyphenyl)-2-isopropoxyethyl)-5-methyl-3-(2-oxo-2-(pyrrolidin-1-yl)ethyl)-6-(1H-pyrazol-1-yl)thieno[2,3-d]pyrimidine-2,4(1H,3H)-dione] | 10 to 40 nM | 0.6 to 3 nM | 0.4 µg/mL (≈ 0.702 µM) | > 50 µg/mL | D (“D” provided a compound concentration of >50 ppm at 90% inhibition of fungal pathogens) | 2 µg/mL (≈ 3.51 µM) | 2 µg/mL (≈ 3.51 µM) | > 50 µg/mL | 10 µg/mL (≈ 17.6 µM) | D (“D” provided a compound concentration of >50 ppm at 90% inhibition of fungal pathogens) | > 50 µg/mL | > 50 µg/mL | > 50 µg/mL | 2 µg/mL (≈ 3.51 µM) | 2 µg/mL (≈ 3.51 µM) | 10 µg/mL (≈ 17.6 µM) | 2 µg/mL (≈ 3.51 µM) | 0.25 to 1 µg/mL (≈ 0.439 to 1.76 µM) | 0.25 to 1 µg/mL (≈ 0.439 to 1.76 µM) | 0.25 to 1 µg/mL (≈ 0.439 to 1.76 µM) | IC90 ([1]; Table 4b, 48 hours): 0.4 µg/mL (≈ 0.702 µM)
